Measured values published in ChEMBL document CHEMBL6071200, “Discovery of Ring-Annulated Analogues of Cannabidiol as Potential Anticancer Agents: Synthesis and Biological Evaluation” (ACS Med Chem Lett, 2024).
Active and inactive are the calls of the source. The calls are words filed in the database; no cut-off is given here.

What was measured:
[1] = system: HCT-116; test: Cytotoxicity against human HCT-116 cells assessed as inhibition of cell growth at 20 uM incubated for 48 hrs by SRB assay relative to control; type: functional
[2] = system: MCF7; test: Cytotoxicity against human MCF7 cells assessed as inhibition of cell growth at 20 uM incubated for 48 hrs by SRB assay relative to control; type: functional
[3] = system: MCF7; test: Anticancer activity against human MCF7 cells assessed as effect on cell viability by SRB assay; type: functional, cell-based
[4] = system: HT-29; test: Anticancer activity against human HT-29 cells; type: functional, cell-based
[5] = Anticancer activity against mouse NIH3T3 cells; type: toxicity, cell-based
[6] = system: MCF7; test: Anticancer activity against human MCF7 cells; type: functional, cell-based
[7] = system: Raji; test: Anticancer activity against human Raji cells; type: functional, cell-based
[8] = system: Jurkat; test: Anticancer activity against human Jurkat cells; type: functional, cell-based
[9] = system: SNB-19; test: Anticancer activity against human SNB-19 cells; type: functional, cell-based
[10] = system: DU-145; test: Anticancer activity against human DU-145 cells; type: functional, cell-based
[11] = system: NCI-H226; test: Anticancer activity against human NCI-H226 cells; type: functional, cell-based
[12] = Cytotoxicity against human HEK293 cells assessed as inhibition of cell growth incubated for 48 hrs by SRB assay; type: toxicity, cell-based
[13] = system: MCF7; test: Cytotoxicity against human MCF7 cells assessed as inhibition of cell growth incubated for 48 hrs by SRB assay; type: functional, cell-based; details: MCF7, 48 h
[14] = Selectivity index, ratio of IC50 for HEK293 cells to IC50 for human MCF7 cells; type: toxicity; details: HEK293 cells versus MCF7 cells, read-out: Ratio IC50
[15] = system: HCT-116; test: Cytotoxicity against human HCT-116 cells assessed as inhibition of cell growth incubated for 48 hrs by SRB assay; type: functional, cell-based; details: HCT-116, 48 h
[16] = Selectivity index, ratio of IC50 for HEK293 cells to IC50 for human HCT-116 cells; type: toxicity; details: HEK293 cells versus HCT-116 cells, read-out: Ratio IC50

C=C(C)[C@@H]1CCC(C)=C[C@H]1c1c(O)cc(CCCCC)c2c1OCN(c1cnc3ccccc3c1)C2
inhibition at 20 µM [1]: 18%
inhibition at 20 µM [2]: 0%

Cc1cc(C)c2nc(-c3ccccn3)cc(C(=O)Nc3ccc(S(=O)(=O)Nc4onc(C)c4C)cc3)c2c1
Activity [3]: inactive

C=C(C)[C@@H]1CCC(C)=C[C@H]1c1c(O)cc(CCCCC)c2c1OCN(c1ccc(OC(F)(F)F)cc1)C2
inhibition at 20 µM [1]: 0%
inhibition at 20 µM [2]: 0%

Oc1cc2c(cc1O)CN(C(=S)NCCc1ccc(Cl)cc1)CCC2
Activity [3]: inactive

C=C(C)[C@@H]1CCC(C)=C[C@H]1C1=C(O)C(=O)C(CCCCC)=CC1=O
IC50 [4]: 449 nM
IC50 [5]: 449 nM
IC50 [6]: 449 nM
IC50 [7]: 449 nM
IC50 [8]: 449 nM
IC50 [9]: 449 nM
IC50 [10]: 449 nM
IC50 [11]: 449 nM

O=C(Nc1ccccc1)c1cc([N+](=O)[O-])ccc1Cl
Activity [3]: inactive

C=C(C)[C@@H]1CCC(C)=C[C@H]1c1c(O)cc(CCCCC)c2c1OCN(CC)C2
IC50 at 48 h [12]: 16800 nM
inhibition at 20 µM [1]: 57.2%
inhibition at 20 µM [2]: 84.3%
IC50 [13]: 8600 nM
selectivity ratio [14]: 1.9
IC50 [15]: 22100 nM
selectivity ratio [16]: 0.7

CCCCCC1=CC(=O)C([C@@H]2C=C(C)CC[C@H]2C(C)C)=C(O)C1=O
IC50 [7]: 154 nM
IC50 [8]: 154 nM

C=C(C)[C@@H]1CCC(C)=C[C@H]1c1c(O)cc(CCCCC)c2c1OCN(C1CCCCCC1)C2
inhibition at 20 µM [1]: 50.9%
inhibition at 20 µM [2]: 74.8%

C=C(C)[C@@H]1CCC(C)=C[C@H]1c1c(O)cc(CCCCC)c2c1OCN(C1CC1)C2
inhibition at 20 µM [1]: 51.7%
inhibition at 20 µM [2]: 75.1%

C=C(C)[C@@H]1CCC(C)=C[C@H]1c1c(O)cc(CCCCC)c2c1OCN(Cc1ccccc1)C2
inhibition at 20 µM [1]: 52.3%
inhibition at 20 µM [2]: 46.5%

C=C(C)[C@@H]1CCC(C)=C[C@H]1c1c(O)cc(CCCCC)c2c1OCN(c1ccccc1)C2
inhibition at 20 µM [1]: 4.09%
inhibition at 20 µM [2]: 5.3%

C=C(C)[C@@H]1CCC(C)=C[C@H]1c1c(O)cc(CCCCC)c2c1OCN(CCC)C2
IC50 at 48 h [12]: 21800 nM
inhibition at 20 µM [1]: 62.8%
inhibition at 20 µM [2]: 82.4%
IC50 [13]: 6100 nM
selectivity ratio [14]: 3.5
IC50 [15]: 7300 nM
selectivity ratio [16]: 2.9
